From PubChem BioAssay (NCI)
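Here, GI50 denotes the concentration required for 50% inhibition of growth. Definition used: TGI = concentration required for complete inhibition of growth.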

What was measured:
Assay in all cases: NCI-60 cell line screen, 384-well format
NCI-H226 lung = test system: NCI-H226 lung
NCI-H460 NSCLC = test system: NCI-H460 NSCLC
RXF 393 renal = test system: RXF 393 renal
SF-539 CNS = test system: SF-539 CNS
HOP-92 NSCLC = test system: HOP-92 NSCLC
MOLT-4 leukemia = test system: MOLT-4 leukemia
MCF7 breast = test system: MCF7 breast
CCRF-CEM leukemia = test system: CCRF-CEM leukemia
TK-10 renal = test system: TK-10 renal
SF-268 CNS = test system: SF-268 CNS
RPMI-8226 leukemia = test system: RPMI-8226 leukemia
U251 glioblastoma = test system: U251 glioblastoma
NCI-H23 lung = test system: NCI-H23 lung

## C[C@@H](C(=O)Nc1ccc(Cl)cc1)C1CCC(c2ccnc3ccc(F)cc23)CC1 (stereo partly specified)
NCI-H226 lung
  GI50: 12.2 µM
  TGI: 28 µM
NCI-H460 NSCLC
  GI50: 2.85 µM
  TGI: 8.81 µM
RXF 393 renal
  GI50: 6.04 µM
  TGI: 20.9 µM
SF-539 CNS
  GI50: 14.2 µM
  TGI: 27.5 µM
HOP-92 NSCLC
  GI50: 8.04 µM
  TGI: 29.4 µM
MOLT-4 leukemia
  GI50: 2.22 µM
  TGI: 6.85 µM
MCF7 breast
  GI50: 7.97 µM
  TGI: 25.7 µM
CCRF-CEM leukemia
  GI50: 2.64 µM
  TGI: 7.41 µM
TK-10 renal
  GI50: 11.3 µM
  TGI: 86.2 µM
SF-268 CNS
  GI50: 6.42 µM
  TGI: 22.7 µM
RPMI-8226 leukemia
  GI50: 2.58 µM
  TGI: 7.6 µM
U251 glioblastoma
  GI50: 9.96 µM
  TGI: 26.2 µM
NCI-H23 lung
  GI50: 3.76 µM
  TGI: 16 µM
